This is an account of results in article PMC11915509, “Small molecule inhibitors of hnRNPA2B1–RNA interactions reveal a predictable sorting of RNA subsets into extracellular vesicles” (Nucleic Acids Research, 2025).

For data set [1], the system named is hnRNPA2B1 protein association with purine-rich RNA probe. Put plainly: RNA pull-down with biotinylated EXOmotif probe after cell treatment, immunoblotting. To be noted: NSC34 cells, 6 h, 5 μM compound. It counts as cell-based, mouse. The method, then: To prepare native protein lysates, 1–3 × 10^6 NSC34 cells were lysed in buffer R-Lysis [25 mM HEPES, pH 7.5, 100 mM NaCl, 1× protease inhibitor (Thermo Fisher, 78429)] and subjected to a water-bath sonication (35–40 amplitude, 6–7 cycles of 7 s on and 45 s off). After a centrifugation at 14 000 rpm for 20 min at 4°C, the supernatant was collected and 200 μg were incubated with 5 μl of buffer equilibrated Dynabeads^TM M-280 Streptavidin (Invitrogen, 11205D) for 15 min at 4°C in rotation to perform a pre-clearing step. After the magnetic separation, the pre-cleared lysate was incubated with 10 μl of 100 μM RNA biotinylated probes (or 400 ng of biotinylated EV-RNA) and incubated for 1 h at 4°C in rotation. Then, 5 μl/sample of beads were added and the sample were put again in rotation for 20 min at 4°C. […]
Cells were lysed in lysis buffer [50 mM Tris–HCl, pH 7.4, 150 mM NaCl, 1 mM EDTA, 0.25% NP-40, 0.1% Triton X-100, 0.1% sodium dodecyl sulphate, 1× protease inhibitor (Thermo Fisher, 78429)]. […] The signal was measured with Amersham ECL HRP-Conjugated Antibodies (Cytiva) using BioRad Chemidoc XRS+.
For orientation: Immunoblotting shows a protein as a band on a membrane.

The target in data set [2] is T1, hnRNPA2B1-EXOmotif interaction (Homo sapiens, UniProt P22626).
T1 construct: purified a human full-length, GST-tagged protein expressed in Escherichia coli cells; made in house; host or cells: E. coli BL21 (DE3)
T1 sequence (P22626 whole entry): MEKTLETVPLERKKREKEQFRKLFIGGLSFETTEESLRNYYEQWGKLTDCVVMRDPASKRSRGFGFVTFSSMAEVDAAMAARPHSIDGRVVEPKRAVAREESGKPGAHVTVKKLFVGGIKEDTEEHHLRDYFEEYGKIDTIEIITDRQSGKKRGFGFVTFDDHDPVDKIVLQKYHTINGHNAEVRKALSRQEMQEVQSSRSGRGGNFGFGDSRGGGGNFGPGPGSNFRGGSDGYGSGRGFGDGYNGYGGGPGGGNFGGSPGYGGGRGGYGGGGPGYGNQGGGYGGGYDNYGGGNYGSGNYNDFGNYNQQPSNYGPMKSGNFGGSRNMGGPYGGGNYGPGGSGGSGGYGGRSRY
The experiment in a line: AlphaScreen dose-response, inhibition of hnRNPA2B1-EXOmotif RNA interaction. It counts as binding. The note with it: AlphaScreen dose-response with RNA EXOmotif, one site fitting.
Procedure: The assays were performed in OptiPlate-384-well plates (PerkinElmer, 6007299) in 20 μl final volume. The ligands were diluted in AlphaBuffer [25 mM HEPES, pH 7.4, 100 mM NaCl, 0.01% bovine serum albumin (BSA)] and tested using AlphaScreen GST Detection Kit (PerkinElmer, 6760603C). […] For the reactions, 4 μl of the RNA probes were first added to the plate, then 16 μl of a mix containing all the other components was added, and the plate was incubated at room temperature for 1 h in the dark.
The high-throughput drug screening was performed in a total volume of 20 μl using 17 nM of RNA EXO motif (chosen below the hooking point), 30 nM GST-hnRNPA2B1, and 250 nM of compounds belonging to mass spectrometry (MS) Spectrum Collection library (MicroSource, 2000 compounds). Compounds were dispensed into white 384-well Optiplates (PerkinElmer) using Echo 650 acoustic dispenser (Beckman Coulter) followed by the addition of protein in Alpha Buffer using the EL460 dispenser (BioTek). After 15 min of incubation, RNA probes were added by Echo 650 acoustic dispenser, while Donor and Acceptor beads from the GST detection kit (Perkin Elmer) were dispensed by EL460 instrument. Following 60 min of incubation, Alpha signal was detected using Enspire plate reader instrument (PerkinElmer). The raw Alpha counts were normalized to Dimethyl sulfoxide (DMSO)-treated controls within every plate.

Data set [3] deals with EV miR-221 from NSC34 cells. Put plainly: ddPCR of miR-221-3p in NSC34-derived EV-RNA. The note with it: NSC34-derived EVs, 6 h treatment. It counts as cell-based, mouse. The method, then: EVs were isolated from HEK293T, NSC34, and smNPC-derived motor neurons using nickel-based isolation (NBI) or differential ultracentrifugation (UC). NBI protocol was performed as already described. Briefly, after a first centrifugation step at 2800 × g for 10 min, nickel beads were incubated for 30 min with serum-free media collected from cells in a ratio of 25 μl of beads per ml of medium. After a 2 min centrifugation at 600 g, particles were eluted from the beads by adding 1× elution buffer made of Solution A [16 mM ethylenediaminetetraacetic acid (EDTA), UltraPure, pH 8.0, Thermo Fisher] and Solution B (10 mM NaCl, 225 μM citric acid, Sigma–Aldrich) diluted five times in phosphate-buffered saline (PBS). After 15 min incubation at 28°C in a thermoshaker, the EVs were retrieved by 1-min centrifugation at 1800 × g and subjected to the following characterization. NBI was used to recover polydisperse EVs and include the RNA contribution from these for reverse proteomics experiments. The EV-RNA for reverse proteomics was pooled from three consecutive EV isolation procedures performed on a total of 30 T75 flasks (10 flasks each) of NSC34 cells grown until 80% confluence under standard conditions before washing with PBS and incubating with serum-free medium with glutamine and antibiotics. Differential UC was applied as an alternative EV isolation protocol to confirm the detection of hnRNPA2B1 protein. UC was performed by a SW 32 Ti swinging bucket rotor in an Optima XPN-100 ultracentrifuge (Beckman Coulter, Brea, CA, USA). The cell-conditioned serum-free media, after the first centrifugation step at 2800 × g for 10 min, was put in open-top Ultra-Clear centrifuge tubes (Beckman Coulter-344058) and subjected to 100 000 × g (100 K) UC for 70 min at 4°C under vacuum, with or without an additional step at 10 000 × g (10 K) to first sediment larger particles. Then the supernatant was removed, and the pellet was resuspended in 0.22 μm filtered PBS. Differential UC alone, consisting of 2800 × g for 10 min and 100 000 × g for 70 min, was applied for experiments reported in Fig. 5. […]
RNA from cells was extracted using TRI Reagent® (T9424, Sigma) following the manufacturer’s instructions. Thermo Fisher Nanodrop 2000 Spectrophotometer was used to assess the purity and quantity of extracted RNA. […] The elution was in 10–20 μl of RNase-free water and the RNA profiling and quantification was assessed by Agilent 2100 Bioanalyzer and RNA 6000 Pico Kit (5067-1513). Cell- and EV-RNAs were also analysed with DNF-472 HS RNA (15 nt) Kit (Agilent Technologies, Santa Clara, CA), according to the manufacturer. […] Results were analysed with Agilent ProSize data analysis software, that allows the analysis of RNA size, concentration and quality. […]

In a further data set the test system is NSC34 cells. Put plainly: Nanodrop quantification of total intracellular RNA after treatment. The data set is classed as cell-based, mouse. The note with it: 6 h treatment. The method, then:
RNA from cells was extracted using TRI Reagent® ([…], Sigma) following the manufacturer's instructions. Thermo Fisher Nanodrop 2000 Spectrophotometer was used to assess the purity and quantity of extracted RNA. RNA from EVs was extracted using Single Cell RNA Isolation Kit (51800, Norgen) following the manufacturer's protocol. The elution was in 10-20 μl of RNase-free water and the RNA profiling and quantification was assessed by Agilent 2100 Bioanalyzer and RNA 6000 Pico Kit (5067-1513). Cell- and EV-RNAs were also analysed with DNF-472 HS RNA (15 nt) Kit (Agilent Technologies, Santa Clara, CA), according to the manufacturer. Briefly, 2 μl of RNA samples concentrated within a range of 50-5000 pg/μl and RNA Ladder were added to Diluent Marker, denatured at 70°C for 2 min and loaded. Results were analysed with Agilent ProSize data analysis software, that allows the analysis of RNA size, concentration and quality. Through a Peak Analysis it was possible to access the concentration of each peak recognized by the software. Half a nanogram of extracted RNA from cells and EVs was used as input for complementary DNA (cDNA) synthesis. cDNA was produced using TaqManTM Advanced miRNA cDNA Synthesis Kit (Applied BiosystemsTM, A28007) following manufacturers' instructions and used for droplet digital polymerase chain reaction (PCR) experiments.

Data set [4] relates to hnRNPA2B1 and TDP43 bound RNA (miR-221, miR-1910). Put plainly: RNA immunoprecipitation (RIP) on cytoplasmic lysates of treated NSC34 cells. The note with it: 6 h treatment, anti-hnRNPA2B1 and anti-TDP43 RIP. It counts as cell-based, mouse. Here is the method:
Flow cytometry of a fraction of RNA immunoprecipitation (RIP) experiments, consisting of RNA/protein-antibody-bead complexes, was performed on the same instrument using a sequential gating with Streptavidin beads alone ± antibodies (this signal corresponded to background). Pyronin Y (PY) was used at a final concentration of 50 ng/ml and the PY-positive events recorded for 1 min.
Approximately 2 × 10^6 cells were used for each RIP experiment, performed as already described, without cross-linking steps and using 0.5 μg/ml of antibodies. Beads-precipitated samples were divided for immunoblotting or TRIzol-based RNA isolation. Densitometric analysis obtained using Image J software (v.1.54). miRNA TaqMan probes were bought from Thermo Fisher with the following codes: miR-221 (477 981), miR-1910 (479 581), and miR-126 (4 427 975).

In the next data set the test system is EXO-motif RNA probe. Put plainly: Absorbance scan of compounds mixed with EXO-motif RNA. It counts as binding. To be noted: EXO-motif RNA probe, 1:5 micromolar ratio. The method, then: (§1) Five μM RNA EXO motif were mixed with 25 μM compounds in AlphaBuffer (25 mM HEPES, pH 7.4, 100 mM NaCl, 0.01% BSA) to a final volume of 20 μl. Absorbance spectrum (200–530 nm) was measured using Tecan Spark® microplate reader with a NanoQuant plate at room temperature. In fluorescence indicator displacement (FID), a 2× final concentration of Midori green advanced (Resnova) was added to the samples and the melting curve measured using Bio-Rad CFX96™ System from 30°C to 90°C.

For a further data set, the system named is EXO-motif RNA. Put plainly: Fluorescence indicator displacement (FID) melting curve, EXO-motif RNA. It counts as binding. To be noted: 5 μM RNA, 25 μM compound, Midori green. Here is the method: as §1
Data set [5] deals with T2, GST-hnRNPA2B1 (Homo sapiens, UniProt P22626 1-353). The experiment in a line: AlphaScreen kinetics (koff/kon); 30 nM protein; kon 523664 M-1 min-1, koff 0.02091 min-1; AlphaScreen: 25 mM HEPES pH 7.4, 100 mM NaCl, 0.01% BSA, RT 1 h; REMSA: 20 mM HEPES pH 7.5, 50 mM KCl, 0.5 ug BSA, 0.25% glycerol, RT; pull-down: 25 mM HEPES pH 7.5, 100 mM NaCl, 4 C. To be noted: protein: recombinant; tags: N-terminal GST (pGEX-6P-1); label: 5'-biotin-TEG; single strand; weak predicted secondary structure (-0.5 kcal/mol).
T2 sequence (P22626 whole entry): as above

Data set [6] deals with T2, GST-hnRNPA2B1. Put plainly: AlphaScreen saturation binding; AlphaScreen: 25 mM HEPES pH 7.4, 100 mM NaCl, 0.01% BSA, RT 1 h; REMSA: 20 mM HEPES pH 7.5, 50 mM KCl, 0.5 ug BSA, 0.25% glycerol, RT; pull-down: 25 mM HEPES pH 7.5, 100 mM NaCl, 4 C. The note with it: protein: recombinant; tags: N-terminal GST (pGEX-6P-1); label: 5'-biotin-TEG; single strand; weak predicted secondary structure (-0.5 kcal/mol).

Data set [7] concerns the target T2, GST-hnRNPA2B1. The experiment in a line: AlphaScreen saturation binding; near-background counts; AlphaScreen: 25 mM HEPES pH 7.4, 100 mM NaCl, 0.01% BSA, RT 1 h; REMSA: 20 mM HEPES pH 7.5, 50 mM KCl, 0.5 ug BSA, 0.25% glycerol, RT; pull-down: 25 mM HEPES pH 7.5, 100 mM NaCl, 4 C. To be noted: protein: recombinant; tags: N-terminal GST (pGEX-6P-1); label: 5'-biotin-TEG; single strand.

Usually IC50 stands for the concentration that inhibits the measured activity by half. Higher therefore signals weaker potency. As a reminder, the Kd is the free concentration of one partner at which half of the binding sites on the other are occupied at equilibrium, for simple one-to-one binding.

Values joined by “and” are separate entries in the source; they are usually repeats but may differ in a detail not shown here. Equal values may be shown once. Where a name gives a salt, the structure may show the parent alone.

For `C=C1c2cccc(O)c2C(=O)C2=C(O)[C@]3(O)C(=O)C(C(N)=O)=C(O)[C@@H](N(C)C)[C@@H]3[C@@H](O)[C@H]12` [MH, methacycline hydrochloride, reference compound], the “association of hnRNPA2B1 protein with exogenous purine-rich RNA probe” value in data set [1] is “most effective”. The IC50 in data set [2] was 100 nM. Also, in [3], the “vesicular miR-221, copy number normalized on Y3 RNA and DMSO” value was “vesicular depletion”.
As for `O=C(O[C@@H]1Cc2c(O)cc(O)cc2O[C@@H]1c1cc(O)c(=O)c2c(O)c(O)cc([C@H]3Oc4cc(O)cc(O)c4C[C@H]3OC(=O)c3cc(O)c(O)c(O)c3)c2c1)c1cc(O)c(O)c(O)c1` [TD, theaflavin digallate], the “vesicular miR-221, copy number normalized on Y3 RNA and DMSO” value in data set [3] is “vesicular depletion”.
Regarding `O=C(O)C1=CC(=C(c2ccc(O)c(C(=O)O)c2)c2ccc(O)c(C(=O)O)c2)C=CC1=O` [ATA, aurin tricarboxylic Acid, reference compound], in [2], the IC50 was ~250 nM and 250 nM.
With `CC(C)=CC1C(C(=O)OCc2cccc(Oc3ccccc3)c2)C1(C)C` (centres unmarked) [P, phenotrin], the “accumulation of intracellular RNAs” value in the data set on NSC34 cells is “significantly higher”. Further, the “percentage of bound targets (miR-221, miR-1910)” value in [4] was “significantly reduced”. Besides, the IC50 in data set [2] was ~120 nM and 122 nM. For the same molecule, the “spectroscopic changes at 230 nm” value in the data set with EXO-motif RNA probe was “main spectroscopic changes”. Moreover, in data set [3], the “vesicular miR-221, copy number normalized on Y3 RNA and DMSO” value is on record as “vesicular depletion”.
Consider neomycin [reference compound], for which the “thermal shift of the EXO-motif RNA” value with EXO-motif RNA came to 6.3 °C.
Turning to GGGGAGGUUAGGGAGGAGGGGGGUAGGCGCC (ssRNA) [EXOmotif RNA (biotin)], the Kd was 40 ± 3 nM with GST-hnRNPA2B1 [5] and 3.4 ± 1.6 nM in the data set with GST-hnRNPA2B1 [6].
On to AGGACUGC (ssRNA) [RNA 276], for which the binding result with GST-hnRNPA2B1 [7] is on record as “no binding”.
